Results taken from ChEMBL document CHEMBL1136853, “Synthesis and SAR of vinca alkaloid analogues” (Bioorg Med Chem Lett, 2009).

Columns and labels:
[1] = test system: P388; assay: Antitumor activity against mouse P388 cells xenografted in mouse assessed as median life span at 6 mg/kg, ip q4d for 3 days measured for 60 days; type: functional; settings: route intraperitoneal
[2] = test system: P388; assay: Antitumor activity against mouse P388 cells xenografted in mouse assessed as median life span at 12 mg/kg, ip q4d for 3 days measured for 60 days; type: functional; settings: route intraperitoneal
[3] = test system: HeLa; assay: Cytotoxicity against human HeLa cells; type: functional
[4] = test system: MCF7; assay: Cytotoxicity against human MCF7 cells; type: functional
[5] = test system: P388; assay: Antitumor activity against mouse P388 cells xenografted in mouse assessed as median life span at 8 mg/kg, ip q4d for 3 days measured for 60 days; type: functional; settings: route intraperitoneal
[6] = test system: P388; assay: Antitumor activity against mouse P388 cells xenografted in mouse assessed as median life span at 4 mg/kg, ip q4d for 3 days measured for 60 days; type: functional; settings: route intraperitoneal
[7] = test system: P388; assay: Antitumor activity against mouse P388 cells xenografted in mouse assessed as median life span at 2 mg/kg, ip q4d for 3 days measured for 60 days; type: functional; settings: route intraperitoneal
[8] = test system: P388; assay: Antitumor activity against mouse P388 cells xenografted in mouse assessed as median life span at 3 mg/kg, ip q4d for 3 days measured for 60 days; type: functional; settings: route intraperitoneal
[9] = Toxicity to mouse assessed as mortality at 12 mg/kg, ip q4d for 3 days; type: organism-based; set-up: dose 12 mg/kg, route intraperitoneal; settings: in vivo, read-out: Activity

| SMILES | T/C [1] | T/C [2] | GI50 [3] | GI50 [4] | T/C [5] | T/C [6] | T/C [7] | T/C [8] | mortality at 72 h [9] |
| --- | --- | --- | --- | --- | --- | --- | --- | --- | --- |
| CCSc1ccc2[nH]c3c(c2c1)CCN1C[C@H](C[C@@](O)(CC)C1)C[C@]3(C(=O)OC)c1cc2c(cc1OC)N(C=O)[C@H]1[C@@](O)(C(=O)OC)[C@H](OC(C)=O)[C@]3(CC)CC=CN4CC[C@]21[C@@H]43 | 107% | 105% | 6 nM | 8 nM |  |  |  |  |  |
| CCC1=C[C@H](C[C@](C(=O)OC)(c2cc3c(cc2OC)N(C)[C@H]2[C@@](O)(C(=O)OC)[C@H](OC(C)=O)[C@]4(CC)CC=CN5CC[C@]32[C@@H]54)c2[nH]c3ccc(N)cc3c2CC)CNC1 |  |  | 300 nM | 600 nM |  |  |  |  |  |
| CCC1=C[C@H]2CN(C1)Cc1c([nH]c3ccc(C(N)=O)cc13)[C@@](C(=O)OC)(c1cc3c(cc1OC)N(C)[C@H]1[C@@](O)(C(=O)OC)[C@H](OC(C)=O)[C@]4(CC)CC=CN5CC[C@]31[C@@H]54)C2 |  |  | > 1000 nM | > 1000 nM |  |  |  |  |  |
| CC[C@]1(O)C[C@H]2CN(CCc3c([nH]c4ccc(SC)cc34)[C@@](C(=O)OC)(c3cc4c(cc3OC)N(C)[C@H]3[C@@](O)(C(=O)OC)[C@H](OC(C)=O)[C@]5(CC)CC=CN6CC[C@]43[C@@H]65)C2)C1 |  |  | 0.6 nM | 2 nM | 243% | 110% |  |  |  |
| CCC1=C[C@H]2CN(C1)Cc1c([nH]c3ccc(SC)cc13)[C@@](C(=O)OC)(c1cc3c(cc1OC)N(C)[C@H]1[C@@](O)(C(=O)OC)[C@H](OC(C)=O)[C@]4(CC)CC=CN5CC[C@]31[C@@H]54)C2 |  |  | 0.3 nM | 1 nM |  | 124% | 102% |  |  |
| CC[C@]1(O)C[C@H]2CN(CCc3c([nH]c4ccc(C)cc34)[C@@](C(=O)OC)(c3cc4c(cc3OC)N(C)[C@H]3[C@@](O)(C(=O)OC)[C@H](OC(C)=O)[C@]5(CC)CC=CN6CC[C@]43[C@@H]65)C2)C1 | 181% |  | 0.3 nM | 0.3 nM |  |  |  | 133% |  |
| CC[C@]1(O)C[C@@H]2CN(CCc3c([nH]c4ccccc34)[C@@](C(=O)OC)(c3cc4c(cc3OC)N(C)[C@H]3[C@@](O)(C(=O)OC)[C@H](OC(C)=O)[C@]5(CC)C=CCN6CC[C@]43[C@@H]65)C2)C1 [VINBLASTINE] |  |  | 0.9 nM | 0.4 nM |  |  |  |  |  |
| CC[C@]1(O)C[C@H]2CN(CCc3c([nH]c4ccccc34)[C@@](C(=O)OC)(c3cc4c(cc3OC)N(C=O)[C@H]3[C@@](O)(C(=O)OC)[C@H](OC(C)=O)[C@]5(CC)C=CCN6CC[C@]43[C@@H]65)C2)C1 [VINCRISTINE] |  |  | 1.7 nM | 1.5 nM |  |  |  |  |  |
| CCC1=C[C@@H]2CN(C1)Cc1c([nH]c3ccccc13)[C@@](C(=O)OC)(c1cc3c(cc1OC)N(C)[C@H]1[C@@](O)(C(=O)OC)[C@H](OC(C)=O)[C@]4(CC)C=CCN5CC[C@]31[C@@H]54)C2 [VINORELBINE] | 114% | 117% | 2.7 nM | 2.4 nM |  |  |  |  | > 10% |
